We go through 1 molecule from patent US20260232767A1, “INTERLEUKIN-23 RECEPTOR ANTAGONIST PEPTIDES FOR USE IN THE TREATMENT OF PSORIASIS” (Janssen Pharmaceutica NV, priority 2023, published 2026).

Structures are written as SMILES. Like-named read-outs stand apart in the source and are kept apart here.

Series [1] relates to subjects with moderate-to-severe plaque psoriasis. Description: BSA, Example 1. The class given is in vivo, human. The following applies: each dose group vs placebo; Week 16. The source says:
Subjects suitable for the method of the present invention satisfy one or more criteria for inclusion, as described below. In some embodiments, the present invention relates to the method and/or use, where the subject has a psoriasis effected Body Surface Area (BSA) of at least 10% before the start of treatment. Herein the term BSA will mean the measure of the percentage of total area of your body affected by psoriasis.
Clinician-reported outcomes including Psoriasis Area and Severity Index (PASI), Body Surface Area (BSA), Investigator's Global Assessment (IGA), Nail Psoriasis Area and Severity Index (NAPSI), Fingernail Physician's Global Assessment (f-PGA), Static Physician's Global Assessment of Genitalia (s-PGA-G), Physician's Global Assessment of Hands and/or Feet (hf-PGA), and Scalp Specific Investigator Global Assessment (ss-IGA) were obtained at Week 0, 8, and 16. PASI and IGA were also obtained at Weeks 1, 2, 4, and 12, and at Week 20, four weeks after the administration of the tablets has stopped.

The subject of a further series is IL-22. As to the kind of experiment: Serum IL-22 immunoassay. It counts as in vivo, human. As to conditions: all treatment groups relative to placebo. The procedure: To evaluate psoriasis relevant systemic biomarkers (Beta-defensin 2 (BD-2), IL-17A, IL-17F, and IL-22), protein concentrations were measured in serum using validated immunoassays. The IL-17A (Catalog #03-0159-00) and IL-17F (Catalog #03-0164-00) assays used are commercially available SMC™-based high sensitivity immunoassays produced by the EMD Millipore Corporation. The manufacturer's protocols were followed and analyzed on the Erenna® instrument platform except for the use of 11 μL Elution Buffer B. While the IL-22 assay is also based on the SMC™ platform and run on the Erenna instrument, the assay was developed internally as a coated plate-based assay. The development and optimization of the BD-2 assay was done on the Meso Scale Discovery on the electrochemiluminescence-based platform, a division of Meso Scale Diagnostics LLC (MSD). For all assays, concentration adjustments were made to values measuring below empirically defined LLOQ or empirically defined ULOQ values. Assay QC verified performance of generated standard curves (average concentration recovery & CV of technical replicates) and control samples (inter-assay plate agreement (CV)).
Serum levels of psoriasis disease biomarkers BD-2, IL-22, IL-17A, and IL-17F relative to baseline were analyzed in patients who received placebo or the compound of Formula (I) and compared to clinical response. […]

The subject of series [2] is neutralizing antibodies to the IL-23 receptor antagonist peptide. The following applies: through Week 16.

For `CC(=O)NCCCC[C@@H]1NC(=O)[C@H](Cc2c[nH]c3c(C)cccc23)NC(=O)[C@H]([C@@H](C)O)NC(=O)[C@H](CC(N)=O)NC(=O)[C@@H](NC(C)=O)C(C)(C)SSC(C)(C)[C@@H](C(=O)N[C@@H](Cc2ccc(OCCN)cc2)C(=O)N[C@@H](Cc2ccc3ccccc3c2)C(=O)NC2(C(=O)N[C@@H](CCC(=O)O)C(=O)N[C@@H](CC(N)=O)C(=O)N[C@@H](Cc3cccnc3)C(=O)N(C)CC(N)=O)CCOCC2)NC1=O` [IL-23 receptor antagonist peptide, Ac-[Pen]*-N-T-[W(7-Me)]-[Lys(Ac)]-[Pen]*-Phe[4-(2-aminoethoxy)]-[2-Nal]-[THP]-E-N-[3-Pal]-Sarc-NH2 (*[Pen]-[Pen]* formdisulfidebond)], in series [1], the “Improvement (reduction) in BSA from baseline” value is on record as “significantly greater improvement”. Also, the IL-22 serum levels result with IL-22 is given as “statistically significant reduction”. In addition, the “Subjects negative for neutralizing antibodies, %” value in series [2] (25 mg QD, 1 evaluable) is recorded as “(100%)”; in series [2] (50 mg QD, 1 evaluable) it was “(100%)”; in series [2] (100 mg BID, 3 evaluable), “(100%)”; in series [2] (100 mg QD, 3 evaluable), “(100%)”; in series [2] (Combined doses, 8 evaluable), “(100%)”. In addition, the “NAb result of ADA-positive samples” value in series [2] is listed as “negative”.
